Measured values from publication PMC9492542, “Brain-restricted mTOR inhibition with binary pharmacology” (Nature, 2022).
Where “and” joins values, the source holds several entries; their conditions need not be identical. Equal entries are not always repeated.

How the values were obtained:
K562 CRISPRi cells = test: Cellular dye (TAMRA) retention assay by flow cytometry; assay type: cell-based
Protocol: Untransduced (no virus or sgRNA^–) and sgRNA expression vector-transduced (sgRNA^+) K562 CRISPRi cells were mixed in a 1:1 ratio, plated in 48-well plates and incubated overnight. Cell mixtures were treated with the indicated TAMRA-linked compounds (300 μl final volume) and incubated for 24 h. Plates were placed over ice and 200 μl of each compound–cell mixture was transferred to a 96-well U-bottom plate. Cells were pelleted at 500g for 5 min and subsequently washed 2× with ice-cold FACS buffer (PBS + 1% BSA + 0.1% NaN3). Cells were resuspended in 200 μl of ice-cold FACS buffer and assessed using an Attune NxT (Thermo Fisher Scientific). Relative uptake of TAMRA-linked compounds was determined by comparing TAMRA fluorescence (561-nm excitation laser and 585/16-nm emission filter) between sgRNA^– and sgRNA^+ cells within each well.

human PBMCs [1] = test: IL-2 secretion of stimulated PBMCs (sandwich ELISA); assay type: cell-based; design: unit not given here
MTORC1 = settings: read-out: Kd4 (drug binding to MTORC1 without FKBP); ref Banaszynski et al, PMID 15796538; cited from earlier work
human PBMCs [2] = test: Proliferation of anti-CD3/anti-CD28 stimulated PBMCs (120 h); assay type: cell-based; design: PBMC cell proliferation: unit not given here
[3] = Cellular activity of FKBP-binding bifunctional kinase inhibitors, with or without RapaBlock; assay type: cell-based
[4] = 0.005081 nM Rapamycin, +10 µM RapaBlock
[5] = 0.005081 nM Rapamycin, No RapaBlock
[6] = 0.015242 nM Rapamycin, +10 µM RapaBlock
[7] = 0.015242 nM Rapamycin, No RapaBlock
[8] = 0.045725 nM Rapamycin, +10 µM RapaBlock
[9] = 0.045725 nM Rapamycin, No RapaBlock
[10] = 0.137174 nM Rapamycin, No RapaBlock
[11] = 0.411523 nM Rapamycin, +10 µM RapaBlock
[12] = 0.411523 nM Rapamycin, No RapaBlock
[13] = 1.23457 nM Rapamycin, No RapaBlock
[14] = 3.7037 nM Rapamycin, +10 µM RapaBlock
[15] = 3.7037 nM Rapamycin, No RapaBlock
[16] = 11.1111 nM Rapamycin, +10 μM RapaBlock
[17] = 11.1111 nM Rapamycin, No RapaBlock
[18] = 33.3333 nM Rapamycin, +10 μM RapaBlock
[19] = 33.3333 nM Rapamycin, No RapaBlock
[20] = 100 nM Rapamycin, +10 μM RapaBlock

## CO[C@H]1C[C@@H](C)C/C(C)=C/[C@@H](CCCC(=O)N2CCN(C(=O)c3ccc(C(=O)[O-])c(-c4c5ccc(=[N+](C)C)cc-5oc5cc(N(C)C)ccc45)c3)CC2)C(=O)C[C@H](O)[C@@H](C)[C@@H](/C(C)=C/[C@@H]2CC[C@@H](O)[C@H](OC)C2)OC(=O)[C@@H]2CCCCN2C(=O)C(=O)[C@]2(O)O[C@H]1[C@@H](OC)C[C@H]2C [FK-TAMRA]
K562 CRISPRi cells; FKBP12 sg1, 1 nM compound
  Median TAMRA signal, fold change sgRNA+/sgRNA-: 0.94 ×
K562 CRISPRi cells; FKBP12 sg1, 100 nM compound
  Median TAMRA signal, fold change sgRNA+/sgRNA-: 0.17 ×
K562 CRISPRi cells; FKBP12 sg2, 1 nM compound
  Median TAMRA signal, fold change sgRNA+/sgRNA-: 0.95 ×
K562 CRISPRi cells; FKBP12 sg2, 100 nM compound
  Median TAMRA signal, fold change sgRNA+/sgRNA-: 0.23 ×
K562 CRISPRi cells; NegCtrl sg, 1 nM compound
  Median TAMRA signal, fold change sgRNA+/sgRNA-: 1.00 ×
K562 CRISPRi cells; NegCtrl sg, 100 nM compound
  Median TAMRA signal, fold change sgRNA+/sgRNA-: 1.00 ×

## CO[C@H]1C[C@@H]2CC[C@@H](C)[C@@](O)(O2)C(=O)C(=O)N2CCCC[C@H]2C(=O)O[C@H]([C@H](C)C[C@@H]2CC[C@@H](OCCOCc3cn(CCOCCOCCOCCOCCOCCOCCOCCOCCNC(=O)c4ccc(C(=O)[O-])c(-c5c6ccc(=[N+](C)C)cc-6oc6cc(N(C)C)ccc56)c4)nn3)[C@H](OC)C2)CC(=O)[C@H](C)/C=C(\C)[C@@H](O)[C@@H](OC)C(=O)[C@H](C)C[C@H](C)/C=C/C=C/C=C/1C [RapaTAMRA]
K562 CRISPRi cells; after extensive washout
  cellular retention (median fluorescence intensity): tenfold increase in median fluorescence intensity

## CO[C@H]1C[C@@H]2CC[C@@H](C)[C@@](O)(O2)C(=O)C(=O)N2CCCC[C@H]2C(=O)O[C@H]([C@H](C)C[C@@H]2CC[C@@H](O)[C@H](OC)C2)CC(=O)[C@H](C)/C=C(\C)[C@@H](O)[C@@H](OC)C(=O)[C@H](C)C[C@H](C)/C=C/C=C/C=C/1C [Rapamycin]
Human PBMCs [1]; [4]
  IL-2 secretion: 3684.01 and 3841.04 and 3311.59
Human PBMCs [1]; [5]
  IL-2 secretion: 3505.26 and 3941.8 and 3950.69
Human PBMCs [1]; [6]
  IL-2 secretion: 3960.64 and 4023.71 and 3669.35
Human PBMCs [1]; [7]
  IL-2 secretion: 3568.59 and 3802.04 and 3829
Human PBMCs [1]; [8]
  IL-2 secretion: 3856.22 and 4056.95 and 3791.84
Human PBMCs [1]; [9]
  IL-2 secretion: 3351.9 and 3536.4 and 3552.37
Human PBMCs [1]; 0.137174 nM Rapamycin, +10 µM RapaBlock
  IL-2 secretion: 4033.13 and 3577.76 and 4020.83
Human PBMCs [1]; [10]
  IL-2 secretion: 2937.87 and 3159.28 and 3403.45
Human PBMCs [1]; [11]
  IL-2 secretion: 4004.34 and 3499.5 and 3861.19
Human PBMCs [1]; [12]
  IL-2 secretion: 2246.17 and 2618.32 and 2523.84
Human PBMCs [1]; 1.23457 nM Rapamycin, +10 µM RapaBlock
  IL-2 secretion: 4301.65 and 4395.86 and 4103.8
Human PBMCs [1]; [13]
  IL-2 secretion: 1538.76 and 1946.24 and 1803.35
Human PBMCs [1]; [14]
  IL-2 secretion: 4066.89 and 3684.01 and 4230.73
Human PBMCs [1]; [15]
  IL-2 secretion: 1476.21 and 1624.34 and 1751.53
Human PBMCs [1]; [16]
  IL-2 secretion: 4063.23 and 3946.51 and 4144.88
Human PBMCs [1]; [17]
  IL-2 secretion: 1251.92 and 1234.65 and 1398.74
Human PBMCs [1]; [18]
  IL-2 secretion: 4013.77 and 3518.61 and 4247.74
Human PBMCs [1]; [19]
  IL-2 secretion: 908.82 and 1132.58 and 1090.71
Human PBMCs [1]; [20]
  IL-2 secretion: 4023.19 and 3609.68 and 3592.67
Human PBMCs [1]; 100 nM Rapamycin, No RapaBlock
  IL-2 secretion: 580.372 and 339.335 and 575.923
MTORC1
  Kd: 26 µM
Human PBMCs [2]; [4]
  PBMC cell proliferation: 90.8
Human PBMCs [2]; [5]
  PBMC cell proliferation: 89.3 and 86.4 and 86.7
Human PBMCs [2]; [6]
  PBMC cell proliferation: 94.6
Human PBMCs [2]; [7]
  PBMC cell proliferation: 70.2 and 84.2 and 80.1
Human PBMCs [2]; [8]
  PBMC cell proliferation: 99.9
Human PBMCs [2]; [9]
  PBMC cell proliferation: 58.9 and 71.7 and 68.2
Human PBMCs [2]; [10]
  PBMC cell proliferation: 55.1 and 66 and 63.4
Human PBMCs [2]; [11]
  PBMC cell proliferation: 100.4
Human PBMCs [2]; [12]
  PBMC cell proliferation: 48.5 and 57.3 and 55.8
Human PBMCs [2]; [13]
  PBMC cell proliferation: 43.2 and 50.6 and 45.3
Human PBMCs [2]; [14]
  PBMC cell proliferation: 92 and 97.7
Human PBMCs [2]; [15]
  PBMC cell proliferation: 44.5 and 45.4 and 43.4
Human PBMCs [2]; [16]
  PBMC cell proliferation: 99 and 90.8 and 96.3
Human PBMCs [2]; [17]
  PBMC cell proliferation: 42 and 45.8 and 42.6
Human PBMCs [2]; [18]
  PBMC cell proliferation: 96.2 and 95.1 and 85.5
Human PBMCs [2]; [19]
  PBMC cell proliferation: 41.2 and 44.7 and 42.3
Human PBMCs [2]; [20]
  PBMC cell proliferation: 73.2 and 69.6 and 68.3
Human PBMCs [2]; 100 nM Rapamycin, No RapaBlock
  PBMC cell proliferation: 32 and 34 and 31.5

## CCC(C)(C)C(=O)C(=O)N1CCCC[C@H]1C(=O)O[C@H](CCc1ccc(OC)c(OC)c1)c1cccc(NC(=O)CCC(=O)N2CCN(c3cc(Nc4ncc(C(=O)Nc5c(C)cccc5Cl)s4)nc(C)n3)CC2)c1 [SLF-Dasatinib]
[3]
  kinase inhibitor activity in cells: did not have kinase inhibitor activity in cells
